Test results from patent US11078194B2, “Salt form and crystal form serving as FGFR and VEGFR inhibitor compounds, and preparation method therefor” (HARBIN ZHENBAO PHARMACEUTICAL CO., LTD., priority 2017, dated 2021).

Assays:
FGFR1 = target: T1, FGFR1 (Homo sapiens, UniProt P11362); experiment: Z'-LYTE Detection Kinase Assay, in vitro enzyme activity test; assay type: biochemical; details: 0.6 nM FGFR1, 10 μm ATP, 23° C., 60 minutes
T1 construct: purchased Invitrogen PV4105
Procedure: The enzyme activity was detected by Z′-LYTE™ Detection Kinase Assay, and the IC50 value of the compound was used as an indicator to evaluate the inhibitory effect of the compound against FGFR1.
FGFR1 (Invitrogen #PV4105)
Reaction buffer solution: 50 mM Hepes (pH 7.5), 10 mM MgCl2, 1 mM EGTA, 0.01% Brij-35, 1 mM DTT, 2 mM MnCl2;
0.6 nM FGFR1, 2 μm Tyr^4 peptide and 10 μm ATP in reaction buffer solution (50 mM Hepes, pH 7.5, 10 mM MgCl2, 0.01% BRU-35, 1 mM EGTA, 4 mM MnCl2, 2 mM DTT).
a. Diluting the compound with DMSO to 10 mM, 3-fold dilution, 11 gradients, two duplicate wells;
b. Transferring compound diluted with a ratio of 1:25 to the middle plate at Bravo Automatic Liquid Station. Then transferring 2.5 uL to the reaction plate to ensure the final DMSO concentration to be 1%;
c. Transferring 5 μL enzyme/substrate buffer to each well;
d. Adding ATP solution to each well sequentially with Multidrop liquid workstation;
e. Centrifuging at 1000 rpm for 1 minute;
f. Placing the reaction plate in a 23° C. incubator, and allowing to react for 60 minutes.
a. Preparing a mixture of Development regent B and Development Buffer with a ratio of 1:128;
b. Adding 5 uL to each well and centrifuging at 1000 rpm for 1 minute;
c. Placing the reaction plate into an incubator (23° C.) for 90 minutes after centrifugation, taking it out, and reading it in the Envision (Perkin Elmer) plate reader […]

[1] = system: FGFR1/2 Highly Expressed Patient-derived Liver Tumor Transplantation Model; experiment: Tumor growth inhibition (TGI) analysis; assay type: in vivo, mice; details: 5 mg/kg, BID
Procedure: The evolutionary growth potential of tumors was evaluated by the relationship between tumor volume and time. The long axis (L) and short axis (W) of the subcutaneous tumor were measured twice a week by the caliper and the tumor volume (TV) was calculated by the formula ((L×W^2)/2). TGI was calculated from the difference between the median tumor volume in the solvent group mice and the median tumor volume in the drug group mice, expressed as a percentage counting for the median tumor volume in the solvent control group, calculated by the following formula: % TGI=((median tumor volume (control)−median tumor volume (dosing group))/median tumor volume (control group))×100
The original statistical analysis was done by repeating the analysis of variance, followed by post-hoc Scheffe's test method for multiple comparisons, with solvent alone (0.5% methylcellulose+0.2% Tween in water) as negative control.

T1 sequence (P11362 22-822): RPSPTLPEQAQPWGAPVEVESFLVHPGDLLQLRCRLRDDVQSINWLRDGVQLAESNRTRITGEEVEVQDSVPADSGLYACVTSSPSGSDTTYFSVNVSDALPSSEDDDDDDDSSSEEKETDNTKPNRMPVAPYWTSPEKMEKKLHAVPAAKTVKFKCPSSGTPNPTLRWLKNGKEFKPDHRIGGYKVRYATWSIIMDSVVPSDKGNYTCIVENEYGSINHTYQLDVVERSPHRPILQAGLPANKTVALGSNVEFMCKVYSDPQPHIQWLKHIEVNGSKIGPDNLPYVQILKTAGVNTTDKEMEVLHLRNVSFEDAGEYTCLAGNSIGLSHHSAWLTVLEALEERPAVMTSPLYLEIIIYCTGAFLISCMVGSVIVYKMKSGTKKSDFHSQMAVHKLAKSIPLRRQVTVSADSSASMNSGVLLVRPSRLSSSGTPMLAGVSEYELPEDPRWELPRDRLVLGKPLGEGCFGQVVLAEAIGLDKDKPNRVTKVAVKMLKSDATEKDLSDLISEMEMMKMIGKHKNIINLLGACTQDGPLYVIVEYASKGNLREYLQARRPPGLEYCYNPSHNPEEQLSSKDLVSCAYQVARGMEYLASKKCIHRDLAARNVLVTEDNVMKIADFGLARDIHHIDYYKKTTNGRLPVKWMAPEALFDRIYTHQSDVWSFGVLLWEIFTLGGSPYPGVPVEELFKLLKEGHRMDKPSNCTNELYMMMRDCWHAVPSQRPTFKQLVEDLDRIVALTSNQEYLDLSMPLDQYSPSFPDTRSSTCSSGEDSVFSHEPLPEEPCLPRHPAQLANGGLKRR

C[C@@H](Oc1ccc2[nH]nc(/C=C(\F)c3ccc(CNC4CCOCC4)nc3)c2c1)c1c(Cl)cncc1Cl [Embodiment 1]
IC50 (FGFR1): ≤ 10 nM
TGI % (last administration) [1]: 85%
